According to patent publication US20240156805A1, “COMPOUND FOR INHIBITING NONSENSE-MEDIATED MRNA DECAY” (RIBOTECH CO., LTD., priority 2021, published 2024):

Assays:
[1] = system: HeLa cell line constitutively expressing the NMD-target mRNA (RLuc-beta-globin PTC); test: NMD reporter HeLa cell line, RLuc mRNA by real-time PCR; type: cell-based; conditions: 5 μM for 12 hours, FIG. 4
Source text: (§1) In Example 1, a beta-globin normal gene or the gene including a premature termination codon (PTC) found in genetic diseases was inserted into the downstream of a chemiluminescence gene, Renilla luciferase (RLuc). Normal gene-inserted mRNA was not targeted by NMD, whereas when a gene having PTC was inserted, the mRNA became a NMD target, and as a result, mRNA was quickly broken down and the expression level of RLuc was reduced.
Accordingly, a HeLa cell line constitutively expressing the NMD-target mRNA was prepared, and simultaneously, the cell line was designed to constitutively express a firefly luciferase (FLuc) gene, which was not a target of NMD, and a total of three cell lines NMD20, NMD4, and NMD5 with the same composition were obtained. In order to confirm whether the HeLa cell line prepared above was suitable for measuring NMD efficiency, the following two experiments were performed.
The NMD inhibitory effect of Compounds 1 to 3 was confirmed using the HeLa cell line prepared in Example 1. After treating the cells with Compounds 1 to 3 at 5 μM for 12 hours, respectively, total RNA and protein were purified from the cells, respectively. Then, the amounts of RNA and protein were quantified respectively through real-time PCR and dual luciferase assay methods. The results were illustrated in FIG. 4.

[2] = system: UPF1; test: Effect on phosphorylation of UPF1, western blotting; type: cell-based; conditions: 5 μM for 12 hours, FIG. 5
Description: Phosphorylation of UPFI was known to be one of the most important factors in NMD. In Example 3.1, the effect of the three types of compounds of the present invention on phosphorylation of UPFI was examined. The cells were treated with each compound at 5 μM for 12 hours, and then total proteins were purified. Then, western blotting was performed using each antibody capable of recognizing Upfl or Upfl phosphorylated at a specific site.

[3] = target: T1, UPF1 and UPF2 (Homo sapiens, UniProt Q92900+Q9HAU5); test: Effect on binding between UPF1 and UPF2, FLAG-UPF1 immunoprecipitation and western blotting; type: cell-based; conditions: 5 μM for 1 hour; FLAG immunoprecipitation; FIG. 6
T1 construct: expressed in transfected cells
T1 sequence (Q92900 1-1129): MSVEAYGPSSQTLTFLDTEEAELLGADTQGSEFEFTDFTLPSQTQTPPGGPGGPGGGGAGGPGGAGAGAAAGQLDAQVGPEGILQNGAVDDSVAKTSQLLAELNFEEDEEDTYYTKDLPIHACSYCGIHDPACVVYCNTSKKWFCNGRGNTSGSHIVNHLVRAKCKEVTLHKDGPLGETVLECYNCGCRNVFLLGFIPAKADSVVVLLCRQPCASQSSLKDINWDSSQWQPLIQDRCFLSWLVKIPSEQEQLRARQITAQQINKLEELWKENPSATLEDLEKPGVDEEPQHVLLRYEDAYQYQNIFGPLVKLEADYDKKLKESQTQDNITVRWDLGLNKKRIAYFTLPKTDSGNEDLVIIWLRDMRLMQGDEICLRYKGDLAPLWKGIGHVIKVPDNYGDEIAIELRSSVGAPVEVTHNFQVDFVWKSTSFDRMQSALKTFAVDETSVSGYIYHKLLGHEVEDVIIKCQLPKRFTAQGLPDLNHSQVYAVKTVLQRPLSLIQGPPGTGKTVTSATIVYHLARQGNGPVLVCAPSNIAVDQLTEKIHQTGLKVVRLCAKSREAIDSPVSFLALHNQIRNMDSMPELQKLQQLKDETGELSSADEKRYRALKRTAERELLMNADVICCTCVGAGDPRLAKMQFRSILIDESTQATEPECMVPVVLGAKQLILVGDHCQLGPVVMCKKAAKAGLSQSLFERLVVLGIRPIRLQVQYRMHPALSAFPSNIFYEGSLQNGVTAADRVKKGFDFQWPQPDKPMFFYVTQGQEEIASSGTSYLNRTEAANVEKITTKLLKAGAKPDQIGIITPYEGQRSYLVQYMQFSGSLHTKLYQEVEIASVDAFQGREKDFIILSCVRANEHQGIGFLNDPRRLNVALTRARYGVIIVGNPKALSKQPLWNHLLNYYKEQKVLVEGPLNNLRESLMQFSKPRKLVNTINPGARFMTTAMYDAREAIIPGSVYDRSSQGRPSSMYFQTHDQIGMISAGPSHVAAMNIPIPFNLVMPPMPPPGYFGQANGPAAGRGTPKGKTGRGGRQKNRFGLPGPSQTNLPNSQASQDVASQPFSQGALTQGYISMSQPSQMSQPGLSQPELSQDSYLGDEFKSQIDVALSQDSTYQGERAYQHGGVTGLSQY
T1 sequence (Q9HAU5 1-1272): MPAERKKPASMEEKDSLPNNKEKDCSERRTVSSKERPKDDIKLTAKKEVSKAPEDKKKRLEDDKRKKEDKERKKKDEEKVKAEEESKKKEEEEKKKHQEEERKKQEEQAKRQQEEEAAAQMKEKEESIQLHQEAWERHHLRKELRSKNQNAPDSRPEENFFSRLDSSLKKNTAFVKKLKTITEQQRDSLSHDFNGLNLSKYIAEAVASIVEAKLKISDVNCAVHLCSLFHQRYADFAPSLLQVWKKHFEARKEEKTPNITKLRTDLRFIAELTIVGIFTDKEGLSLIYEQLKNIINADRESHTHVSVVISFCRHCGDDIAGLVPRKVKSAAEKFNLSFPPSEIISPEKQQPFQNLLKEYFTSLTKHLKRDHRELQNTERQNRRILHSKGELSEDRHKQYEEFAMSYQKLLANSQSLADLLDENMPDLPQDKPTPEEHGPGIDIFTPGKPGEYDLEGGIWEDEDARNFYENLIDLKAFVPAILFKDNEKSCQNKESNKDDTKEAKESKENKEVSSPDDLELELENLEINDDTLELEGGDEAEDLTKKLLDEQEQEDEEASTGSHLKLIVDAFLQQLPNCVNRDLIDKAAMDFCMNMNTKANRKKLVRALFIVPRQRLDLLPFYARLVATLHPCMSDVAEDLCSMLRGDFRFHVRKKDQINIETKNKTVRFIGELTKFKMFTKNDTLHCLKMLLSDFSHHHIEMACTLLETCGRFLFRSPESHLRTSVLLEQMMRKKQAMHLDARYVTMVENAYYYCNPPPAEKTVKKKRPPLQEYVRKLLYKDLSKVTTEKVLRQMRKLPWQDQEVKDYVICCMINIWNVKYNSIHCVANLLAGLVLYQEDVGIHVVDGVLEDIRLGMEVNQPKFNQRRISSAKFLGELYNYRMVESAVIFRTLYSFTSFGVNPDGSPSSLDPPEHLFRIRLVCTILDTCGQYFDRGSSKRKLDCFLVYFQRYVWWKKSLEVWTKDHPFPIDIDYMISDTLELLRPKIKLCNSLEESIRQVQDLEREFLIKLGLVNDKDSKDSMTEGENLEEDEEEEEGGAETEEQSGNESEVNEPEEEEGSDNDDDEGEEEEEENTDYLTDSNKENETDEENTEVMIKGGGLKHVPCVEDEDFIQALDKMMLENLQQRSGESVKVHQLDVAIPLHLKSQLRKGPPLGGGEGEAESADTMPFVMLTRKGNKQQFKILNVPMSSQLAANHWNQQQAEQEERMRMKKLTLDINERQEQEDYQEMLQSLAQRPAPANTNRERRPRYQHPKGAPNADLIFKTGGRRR
Description: In the cell line, DNA expressing FLAG-UPF1 was transiently overexpressed.
After treating the cell line with each compound at 5 μM for 1 hour, a cell extract was obtained. Immunoprecipitation was performed on the cell extract obtained using a FLAG antibody.
Proteins before and after immunoprecipitation were analyzed by western blotting.

[4] = system: β-6bs mRNA (reporter mRNA); test: Tethering of MS2-Upf1, MS2-Upf2, MS2-Upf3 to 3' UTR of reporter mRNA in HeLa cell line, real-time PCR; type: cell-based; conditions: 5 μM for 6 hours or 12 hours; FIGS. 8 and 9
Description: An NMD-based search system capable of artificially reducing the amount of reporter mRNA was constructed, after artificially tethering proteins Upf1, Upf2, and Upf3X acting in each step of NMD to 3′ UTR of reporter mRNA (FIG. 7). Using this method, it was attempted to verify which step of NMD the three types of compounds acted on.
After treating the cell line with each compound at 5 μM for 6 hours or 12 hours, a cell extract was obtained. Thereafter, the relative amount of reporter mRNA was measured through real-time PCR.

[5] = system: HeLa cell line constitutively expressing the NMD-target mRNA (RLuc-beta-globin PTC); test: NMD reporter HeLa cell lines (NMD20, NMD4, NMD5), RLuc/FLuc dual luciferase assay; type: cell-based; conditions: 5 μM for 12 hours, FIG. 4
Description: as §1, with “reduced. […]” for “reduced.”
First, each of the prepared cell lines was treated with caffeine, which was known as a non-specific NMD inhibitor, to confirm the degree of RLuc activity to FLuc activity. […] Then, the expression levels of RLuc and FLuc proteins were measured by dual luciferase assay.
Additionally, it was attempted to determine whether the prepared HeLa cell line was suitable for performing high-throughput screening (HTS). Experiments were performed by optimizing the conditions such as the number of cells, the amounts of used reagent and buffer, and the like in a 384-well format to be suitable for HTS (FIG. 3), and NMD efficiency was measured using Wortmannin, which was a non-specific NMD inhibitor, as a control substance. […]
The NMD inhibitory effect of Compounds 1 to 3 was confirmed using the HeLa cell line prepared in Example 1. […] Then, the amounts of RNA and protein were quantified respectively through real-time PCR and dual luciferase assay methods. […]

[6] = system: dystrophin protein; test: Dystrophin protein in DMD patient-derived cell line, Western blotting; type: cell-based, human; conditions: 5 μM for 12 hours, FIG. 11

| UPF1-UPF2 binding [3] | SMILES | amount of RLuc mRNA [1] | phosphorylation of UPF1 [2] | NMD step targeted (relative amount of reporter mRNA) [4] | protein translation of RLuc [5] | amount of dystrophin protein expressed in cells [6] |
| --- | --- | --- | --- | --- | --- | --- |
| did not significantly affect | COc1cc2ncnc(-n3nc(-c4ccccn4)nc3N)c2cc1OC [Compound 3, 1-(6,7-Dimethoxy-4-quinazolinyl)-3-(2-pyridinyl)-1H-1,2,4-Triazol-5-amine] | significantly increased | did not significantly affect | did not target the UPF1-UPF2 and UPF2-UPF3 steps | – | – |
| did not significantly affect | Cn1c(=O)n(-c2ccc(C(C)(C)C#N)cc2)c2c3cc(-c4cnc5ccccc5c4)ccc3ncc21 [Compound 2, 2-methyl-2-{4-[3-methyl-2-oxo-8-(quinolin-3-yl)-2,3-dihydro-1H-imidazo[4,5-c]quinolin-1-yl]phenyl} propanenitrile] | significantly increased | significantly inhibited | did not target the UPF1-UPF2 and UPF2-UPF3 steps | – | – |
| significantly inhibited | COc1ncc(-c2ccc3nccc(-c4ccnnc4)c3c2)cc1NS(=O)(=O)c1ccc(F)cc1F [Compound 1, 2,4-Difluoro-N-{2-(methyloxy)-5-[4-(4-pyridazinyl)-6-quinolinyl]-3-pyridinyl} benzenesulfonamide] | – | did not significantly affect | targeted a UPF1-UPF2 step | increased | increased |
